Experimental data reported in patent publication US7691874B2, “Neuroprotective properties of dextrorotatory morphinans” (priority 2004, dated 2010).
Marks after values point to notes of the source that are not given here.

Assays:
C57 BL/6 mice [1] = test: Locomotor activity and locomotor pattern following repeated administration of morphinans or PCP; format: in vivo
C57 BL/6 mice [2] = test: Conditioned place preference (psychological dependence) following repeated administration of morphinans or PCP; format: in vivo; settings: 20 or 40 mg/kg i.p. (PCP 2.5 or 5 mg/kg); vs saline
Description: On day 14, the guillotine doors were raised. […] Data were analyzed between 0900 and 1700 hr.

MPTP-treated mice [3] = test: Hypokinesia (reduction in locomotor activity) induced by MPTP; format: in vivo; settings: 12 or 24 mg/kg i.p. 30 min before MPTP (20 mg/kg/day x 7), last three days
LPS-treated mice [4] = test: Striatal dopamine and metabolites in LPS-treated mice; format: in vivo; settings: for Concentration DA in the striatum: 3 weeks after LPS
Description: (§1) Control animals received striatal injection with PBS.
Mice were sacrificed at 3 weeks after LPS treatment.

LPS-treated mice [5] = test: Nigral TH-IR in LPS-treated mice; format: in vivo; settings: 24 mg/kg i.p.
Description: FIGS. 8A-8B. […] Magnification=40×.
as §1

MA-treated mice [6] = test: Methamphetamine (MA)-induced hyperthermia; format: in vivo; settings: 24 mg/kg; MA 7.5 mg/kg i.p. x 4 at 2-h intervals
Description: Rectal temperature was recorded at 40 min after each MA treatment. […] Mice were sacrificed at 3 days after final MA injection.
FIGS. 10A-10B show effect of morphinans on the methamphetamine (MA)-induced hyperthermia. Mice received i.p. injections of MA (four injections of 7.5 mg/kg each) at 2-h intervals under the ambient temperature of 22.0±0.5° C. Temperatures were recorded at 40 min after each MA treatment (Arrow=MA injection).

MA-treated mice [7] = test: Hypokinesia induced by MA; format: in vivo; settings: 12 and 24 mg/kg; 3 days after final MA
MA-treated mice [8] = test: Striatal dopamine and metabolites in MA-treated mice; format: in vivo; settings: for Concentration DA in the striatum: 3 days after final MA
Description: Mice were sacrificed at 3 days after final MA injection.

cocaine-treated mice [9] = test: Cocaine-induced hyperlocomotion; format: in vivo
Procedure, shortened: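 Morphinans (15 and 30 mg/kg, i.p.) or dimemorfan (20 mg/kg, i.p.) given 30 minutes before cocaine (5 and 20 mg/kg, i.p.); treatments continued for 7 days. Locomotion scored as central activity (non-specific movement in box center) and marginal activity (circling).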

MA-treated mice [10] = test: MA-induced hyperlocomotion; format: in vivo; settings: morphinan 20 mg/kg i.p. 30 min before MA 1 mg/kg i.p./day x 7
Description: FIGS. 39A-39D show effect of morphinans on the MA-induced hyperactivity in the mice. Each morphinan (20 mg/kg, i.p.) was administered 30 minutes prior to MA (1 mg/kg, i.p.). All treatments were performed for 7 days.

MA-treated mice [11] = test: MA-induced behavioural sensitization; settings: morphinan 20 mg/kg i.p., last 3 days of wash-out (Ex. 3.12)
Description: Morphinans (20 mg/kg, i.p.) were administered last 3 days of wash-out period.

[12] = tested on: NMDA receptor associated PCP sites; settings: cited from earlier work
σ1 receptors = σ1 receptors (Homo sapiens, UniProt Q99720); settings: cited from earlier work
Sequence of σ1 receptors (Q99720 whole entry): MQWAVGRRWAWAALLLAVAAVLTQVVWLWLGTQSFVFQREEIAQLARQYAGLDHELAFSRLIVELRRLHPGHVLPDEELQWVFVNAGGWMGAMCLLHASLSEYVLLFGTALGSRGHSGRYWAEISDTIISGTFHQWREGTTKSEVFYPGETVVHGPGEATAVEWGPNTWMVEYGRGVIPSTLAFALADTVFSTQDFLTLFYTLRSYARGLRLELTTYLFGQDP

[13] = tested on: kainate or maximal electric shock; settings: kainate (24) or maximal electric shock (27); cited from earlier work
MA-treated mice [14] = test: Nigral TH-IR in MA-treated mice; settings: 24 mg/kg i.p.
MA-treated mice [15] = test: MA-induced FRA-IR in the striatum; settings: morphinan 20 mg/kg i.p.; MA 1 mg/kg i.p./day x 7
Description: Therefore, brains were removed and used for immunocytochemical analysis at 18 h after the final cocaine/MA treatment. The coronal sections containing striatum were processed for FRA immunocytochemistry. […] The FRA antibody was used at 1:2,000 as the optimal dilution. The FRA-IR in the striatum was calculated using image analysis systems with a polaroid digital microscopic camera (Optimas version 6.2).

LPS-treated mice [16] = test: Hypokinesia induced by intrastriatal LPS; settings: 12 or 24 mg/kg, twice before bilateral intrastriatal LPS
Description: Male mice were anesthetized with chloral hydrate (200 mg/kg, i.p.) and positioned in a small-animal stereotaxic apparatus. […] LPS (2 μg in a volume of 2 μl of PBS) was injected into both sides of the striatum over a period of 2 min, and the injection needle was kept in place for 2 min after the injection. Control animals received striatal injection with PBS.
Ten min after the last treatment with each drug, locomotor activity was measured for 30 min. After measuring the locomotor activity (i.e. 40 min after the last drug injection), the ‘absolute turn angular’ was analyzed in a 3-min monitoring period using an automated video-tracking system (Noldus Information Technology, Wagenin, The Netherlands) to examine locomotor patterns. […] Eight test boxes (40×40×30 cm high) were operated simultaneously by an IBM computer. Animals were studied individually during locomotion in each test box, where they were adapted for 10 min before starting the experiment. […] The distance traveled in cm by the animals in horizontal locomotor activity was analyzed (13, 25, 27). Data were collected and analyzed between 0900 and 1700 hr.

MPTP-treated mice [17] = test: Striatal dopamine and metabolites (HPLC-EC) in MPTP-treated mice; settings: for Concentration DA in the striatum: mean ± S.E.M., 8 animals
MPTP-treated mice [18] = test: Nigral tyrosine hydroxylase-like immunoreactivity in MPTP-treated mice; settings: 24 mg/kg i.p.
Description: Each morphinan was administered 30 min prior to every injection of MPTP for last three days (from day 4th to day 7th). Animals were sacrificed 24 h after the last MPTP treatment.

cocaine-treated mice [19] = test: Cocaine-induced Fos-related antigen-immunoreactivity (FRA-IR) in the striatum; settings: cocaine 5 mg/kg; morphinan 20 mg/kg i.p.
MPTP-treated mice [20] = test: MPTP model, HM versus L-dopa/carbidopa: locomotor activity; format: in vivo; settings: HM 24 mg/kg i.p., L-dopa 200 mg/kg p.o., carbidopa 20 mg/kg p.o., 2 weeks before MPTP
Description: FIGS. 20A-20B show effects of carbidopa, L-dopa, carbidopa+L-dopa and HM on the changes in locomotor activity (A) and locomotor pattern (B) induced by MPTP in mice.
A prescription drug for treating Parkinsonian patients is L-dopa or carbidopa plus L-dopa. Thus, the neuroprotective effects of HM was compared with L-dopa, carbidopa, or carbidopa plus L-dopa. […] Locomotor activity was examined for 60 min after final treatment of MPTP. Mice were sacrificed at 24 h after final MPTP administration. HM (24 mg/kg, i.p.), L-dopa (200 mg/kg, p.o.) with or without carbidopa (20 mg/kg, p.o.) was administered for 2 weeks before first MPTP challenge.

LPS-treated mice [21] = test: LPS model, HM versus L-dopa/carbidopa: mortality; format: in vivo; settings: intrastriatal LPS 2 μg x 4/head; 2 weeks
Description: Mortality was observed by 2 weeks after LPS injection. *P<0.01 vs. Saline+LPS (x^2-test).
The neuroprotective effect of HM was compared with L-dopa, carbidopa, or carbidopa plus L-dopa in response to dopaminergic damage induced by LPS. Intrastriatal injection of LPS (2 μg×4/head) produced high mortality (ten animals died out of twelve animals in the 2 weeks after LPS administration).

LPS-treated mice [22] = test: LPS model, HM versus L-dopa/carbidopa: nigral TH-IR; settings: mouse, in vivo
Description: FIG. 27 show effects of carbidopa, L-dopa, carbidopa+L-dopa and HM on the nigral tyrosine hydroxylase-like immunoreactivity (TH-IR) of the mice treated with LPS.

LPS-treated mice [23] = test: LPS model, HM versus L-dopa/carbidopa: microglia F4/80-like immunoreactivity; format: in vivo; settings: substantia nigra
MA-treated mice [24] = test: MA model, HM versus L-dopa/carbidopa: hyperthermia; format: in vivo; settings: MA 7.5 mg/kg i.p. x 4
Description: FIGS. 31A-31B show effect of drugs on the MA-induced hyperthermia. Mice received MA injections as 2 hrs' time interval under the ambient temperature of 22.0±0.5° C.
Experimental paradigm for MA with or without compounds is in FIG. 30. Treatment with MA (7.5 mg/kg, i.p.×four times as two hour time interval) produces hyperthermia (P<0.01).

SMILES: CN1CC[C@]23CCCC[C@H]2[C@H]1Cc1ccc(OCC2CC2)cc13 [CM, 3-cyclopropylmethoxy-17-methylmorphinan]
- locomotor pattern (tracings) (C57 BL/6 mice [1]; 40 mg/kg i.p. (PCP 5 mg/kg), FIG. 3): did not produce significant marginal activity
- marginal activity (circling behaviour; absolute turn angular) (C57 BL/6 mice [1]; 20 or 40 mg/kg i.p./day x 7 (PCP 2.5 or 5 mg/kg), 3-min period, vs saline): did not significantly affect marginal activity
- locomotor activity (total distance moved) (C57 BL/6 mice [1]; 20 or 40 mg/kg i.p./day x 7 days, 30 min after final treatment, vs saline): comparable to that with saline
- conditioned place preference (CPP) (C57 BL/6 mice [2]): almost no CPP effects
- effect on MPTP-induced reduction in locomotor activity (MPTP-treated mice [3]): significantly prevented MPTP-induced reduction in locomotor activity
- effect on LPS-induced reductions in striatal DA, DOPAC and HVA (LPS-treated mice [4]; 24 mg/kg pretreatment): significantly protected
- Concentration DOPAC in the striatum (LPS-treated mice [4]; morphinan 12 (mg/kg) + LPS): 70 ± 7 ng/100 mg wet tissue
- Concentration HVA in the striatum (LPS-treated mice [4]; morphinan 12 (mg/kg) + LPS): 83 ± 6 ng/100 mg wet tissue
- Concentration DA in the striatum (LPS-treated mice [4]; morphinan 12 (mg/kg) + LPS, mean ± S.E.M., 8 animals): 482 ± 54 ng/100 mg wet tissue
- Concentration DOPAC in the striatum (LPS-treated mice [4]; morphinan 24 (mg/kg) + LPS): 86 ± 9^c ng/100 mg wet tissue
- Concentration HVA in the striatum (LPS-treated mice [4]; morphinan 24 (mg/kg) + LPS): 89 ± 7^c ng/100 mg wet tissue
- Concentration DA in the striatum (LPS-treated mice [4]; morphinan 24 (mg/kg) + LPS): 684 ± 56^c ng/100 mg wet tissue
- effect on LPS-induced reduction in nigral TH-positive cells (LPS-treated mice [5]): significantly attenuated the reduction in TH-positive cells
- effect on MA-induced hyperthermia (rectal temperature) (MA-treated mice [6]): attenuated by all morphinans used in this study
- effect on MA-induced reduction in locomotor activity (MA-treated mice [7]): significantly prevented MA-induced reduction in locomotor activity
- effect on MA-induced reductions in striatal DA, DOPAC and HVA (MA-treated mice [8]; 24 mg/kg pretreatment): significantly protected
- Concentration DOPAC in the striatum (MA-treated mice [8]; morphinan 12 (mg/kg) + MA): 82 ± 10 ng/100 mg wet tissue
- Concentration HVA in the striatum (MA-treated mice [8]; morphinan 12 (mg/kg) + MA): 83 ± 9 ng/100 mg wet tissue
- Concentration DA in the striatum (MA-treated mice [8]; morphinan 12 (mg/kg) + MA, mean ± S.E.M., 8 animals): 668 ± 81 ng/100 mg wet tissue
- Concentration DOPAC in the striatum (MA-treated mice [8]; morphinan 24 (mg/kg) + MA): 99 ± 10^b ng/100 mg wet tissue
- Concentration HVA in the striatum (MA-treated mice [8]; morphinan 24 (mg/kg) + MA): 94 ± 12^b ng/100 mg wet tissue
- Concentration DA in the striatum (MA-treated mice [8]; morphinan 24 (mg/kg) + MA): 777 ± 66^c ng/100 mg wet tissue
- effect on locomotor activity induced by low dose of cocaine (cocaine-treated mice [9]; cocaine 5 mg/kg i.p. x 7 days, morphinan 15 or 30 mg/kg (DF 20 mg/kg) i.p.): consistently attenuated locomotor activity induced by a low dose of cocaine
- effect on hyperactivity induced by high dose of cocaine (cocaine-treated mice [9]; cocaine 20 mg/kg i.p. x 7 days, morphinan 15 or 30 mg/kg i.p. 30 min before): not uniform
- effect on MA-induced hyperlocomotion (MA-treated mice [10]): consistently effective in attenuating hyperlocomotion induced by MA
- effect on MA-induced behavioural sensitization (MA-treated mice [11]): significantly reduced
- affinity for NMDA receptor associated PCP sites [12]: very low affinities
- affinity for σ1 receptors (σ1 receptors): high affinity ligands
- anticonvulsant effect [13]: exhibited anticonvulsant effects
- effect on MA-induced decrease in nigral TH-positive cells (MA-treated mice [14]): significantly attenuated the decrease in TH-positive cells
- effect on MA-induced FRA-IR in the striatum (MA-treated mice [15]): apparently attenuated
- effect on LPS-induced decrease in locomotor activity (LPS-treated mice [16]): significantly prevented LPS-induced decrease in locomotor activity
- effect on MPTP-induced reductions in striatal DA, DOPAC and HVA (MPTP-treated mice [17]; 24 mg/kg pretreatment): significantly protected
- Concentration DOPAC in the striatum (MPTP-treated mice [17]; morphinan 12 (mg/kg) + MPTP): 58 ± 6 ng/100 mg wet tissue
- Concentration HVA in the striatum (MPTP-treated mice [17]; morphinan 12 (mg/kg) + MPTP): 68 ± 9 ng/100 mg wet tissue
- Concentration DA in the striatum (MPTP-treated mice [17]; morphinan 12 (mg/kg) + MPTP): 489 ± 69 ng/100 mg wet tissue
- Concentration DOPAC in the striatum (MPTP-treated mice [17]; morphinan 24 (mg/kg) + MPTP): 78 ± 10^b ng/100 mg wet tissue
- Concentration HVA in the striatum (MPTP-treated mice [17]; morphinan 24 (mg/kg) + MPTP): 89 ± 7^b ng/100 mg wet tissue
- Concentration DA in the striatum (MPTP-treated mice [17]; morphinan 24 (mg/kg) + MPTP): 587 ± 76^b ng/100 mg wet tissue
- effect on MPTP-induced decrease in nigral TH-positive cells (MPTP-treated mice [18]): significantly attenuated the decrease in TH-positive cells
- effect on cocaine-induced FRA-IR in the striatum (cocaine-treated mice [19]): apparently attenuated

SMILES: C[C@@](Cc1ccc(O)c(O)c1)(NN)C(=O)O [carbidopa]
- effect on MPTP-induced decrease in locomotor activity (MPTP-treated mice [20]): appeared to increase
- effect on mortality induced by LPS (LPS-treated mice [21]): appears to attenuate mortality induced by LPS
- effect on LPS-induced loss in nigral TH-IR (LPS-treated mice [22]): significantly attenuated
- effect on LPS-induced increase in F4/80-like immunoreactivity (microglia) (LPS-treated mice [23]): significantly attenuated
- effect on MA-induced hyperthermia (MA-treated mice [24]): significantly attenenuated
